Reference: PubChem BioAssay AID328 (DTP/NCI, 2004)
Toxic doses and inconclusive results are not listed.

System: BDF1 mice, P388 leukemia ip, median survival T/C
Assay: NCI In Vivo Anticancer Drug Screen. Data for tumor model P388 Leukemia (intraperitoneal) in B6D2F1 (BDF1) mice
Conditions: endpoint: median survival time, higher = longer survival
Summary of the method: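 In tumour-bearing mice, survival after compound treatment is set against the vehicle group and given as a quotient.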

[1] = dose: 100.0 mg/kg/injection, schedule: Q04DX003 (ip), vehicle: Klucel (hydroxypropylcellulose) (HPC)
[2] = dose: 200.0 mg/kg/injection, schedule: Q04DX003 (ip), vehicle: Klucel (hydroxypropylcellulose) (HPC)
[3] = dose: 400.0 mg/kg/injection, schedule: Q04DX003 (ip), vehicle: Klucel (hydroxypropylcellulose) (HPC)
[4] = dose: 37.5 mg/kg/injection, schedule: Q01DX009 (ip), vehicle: saline with Tween-80
[5] = dose: 100.0 mg/kg/injection, schedule: Q04DX003 (ip), vehicle: saline with Tween-80
[6] = dose: 200.0 mg/kg/injection, schedule: Q01DX009 (ip), vehicle: saline with Tween-80
[7] = dose: 200.0 mg/kg/injection, schedule: Q04DX003 (ip), vehicle: saline with Tween-80
[8] = dose: 400.0 mg/kg/injection, schedule: Q04DX003 (ip), vehicle: saline with Tween-80
[9] = dose: 100.0 mg/kg/injection, schedule: Q01DX009 (ip), vehicle: saline with Tween-80

**Q.** How did the T/C (dose: 1.56 mg/kg/injection, schedule: Q01DX009 (ip), vehicle: gum acacia) turn out when CC1NNC(=O)C1(Br)Br (centres undefined) was run?
**A.** 113 % of control

**Q.** What about the T/C (dose: 3.12 mg/kg/injection, schedule: Q01DX009 (ip), vehicle: gum acacia) of the same compound?
**A.** 113 % of control

**Q.** What about the T/C (dose: 6.25 mg/kg/injection, schedule: Q01DX009 (ip), vehicle: gum acacia) of the same compound?
**A.** 94 % of control

**Q.** Which results are given for O=[N+]([O-])c1ccc(/C=C/c2ccccn2)s1?
**A.** T/C [1]: 100 % of control; T/C [2]: 100 % of control; T/C [3]: 100 % of control

**Q.** With CCC(C)C(=O)O[C@H]1C(=O)O[C@@H]2C[C@H]3C(C)=CC(=O)[C@@H](O)[C@]3(C)[C@H]3[C@@H](O)[C@H](O)[C@@]4(C)OC[C@]32[C@@H]14 (some centres undefined) as the compound, how does the T/C (dose: 0.06 mg/kg/injection, schedule: Q01DX009 (ip), vehicle: saline + alcohol) read?
**A.** 115 % of control

**Q.** And the T/C (dose: 0.75 mg/kg/injection, schedule: Q01DX009 (ip), vehicle: saline + alcohol)?
**A.** 159 % of control

**Q.** What about the T/C (dose: 1.0 mg/kg/injection, schedule: Q01DX009 (ip), vehicle: saline + alcohol) of the same compound?
**A.** 198 % of control

**Q.** What about the T/C (dose: 1.5 mg/kg/injection, schedule: Q01DX009 (ip), vehicle: saline + alcohol) of the same compound?
**A.** 154 % of control

**Q.** What about the T/C (dose: 2.0 mg/kg/injection, schedule: Q01DX009 (ip), vehicle: saline + alcohol) of the same compound?
**A.** 155 % of control

**Q.** What about the T/C (dose: 3.0 mg/kg/injection, schedule: Q01DX009 (ip), vehicle: saline + alcohol) of the same compound?
**A.** 104 % of control

**Q.** And the T/C (dose: 4.0 mg/kg/injection, schedule: Q01DX009 (ip), vehicle: saline + alcohol)?
**A.** 180 % of control

**Q.** COc1ccccc1NC(=O)Oc1c(C(C)C)cccc1C(C)C was tested. Which T/C [1] did it give?
**A.** 95 % of control

**Q.** What about the T/C [2] of the same compound?
**A.** 87 % of control

**Q.** And the T/C [3]?
**A.** 100 % of control

**Q.** Which results are given for CCOC(=O)CCSC(C)(C)C(=O)OCC?
**A.** T/C (dose: 100.0 mg/kg/injection, schedule: Q01DX009 (ip), vehicle: Klucel (hydroxypropylcellulose) (HPC)): 100 % of control; T/C [1]: 104 % of control; T/C (dose: 200.0 mg/kg/injection, schedule: Q01DX009 (ip), vehicle: Klucel (hydroxypropylcellulose) (HPC)): 105 % of control; T/C [2]: 104 % of control; T/C (dose: 400.0 mg/kg/injection, schedule: Q01DX009 (ip), vehicle: Klucel (hydroxypropylcellulose) (HPC)): 105 % of control; T/C [3]: 100 % of control

**Q.** Which T/C (dose: 16.5 mg/kg/injection, schedule: Q01DX009 (ip), vehicle: saline with Tween-80) does the source give for COC(=O)c1[nH]cnc1/N=N\N(CCF)CCF here?
**A.** 179 % of control

**Q.** What about the T/C (dose: 25.0 mg/kg/injection, schedule: Q01DX009 (ip), vehicle: saline with Tween-80) of the same compound?
**A.** 188 % of control

**Q.** And the T/C [4]?
**A.** 166 % of control

**Q.** And the T/C (dose: 44.0 mg/kg/injection, schedule: Q04DX003 (ip), vehicle: saline with Tween-80)?
**A.** 168 % of control

**Q.** What about the T/C (dose: 66.0 mg/kg/injection, schedule: Q04DX003 (ip), vehicle: saline with Tween-80) of the same compound?
**A.** 218 % of control

**Q.** And the T/C [5]?
**A.** 86 % of control

**Q.** For II, which T/C (dose: 12.0 mg/kg/injection, schedule: Q01DX010 (ip), vehicle: acetone) is on record?
**A.** 114 % of control

**Q.** And the T/C (dose: 25.0 mg/kg/injection, schedule: Q01DX010 (ip), vehicle: acetone)?
**A.** 96 % of control

**Q.** What about the T/C (dose: 50.0 mg/kg/injection, schedule: Q01DX010 (ip), vehicle: acetone) of the same compound?
**A.** 110 % of control

**Q.** How did the T/C (dose: 5.0 mg/kg/injection, schedule: Q01DX010 (ip), vehicle: saline) turn out when COc1cc2c3cc1Oc1c(OC)c(OC)cc4c1C(Cc1cc5c(c(c1)Oc1ccc(cc1)CC3N(C)CC2)OCO5)N(C)CC4 (centres undefined) was run?
**A.** 90 % of control

**Q.** And the T/C (dose: 20.0 mg/kg/injection, schedule: Q01DX010 (ip), vehicle: saline)?
**A.** 104 % of control

**Q.** What about the T/C (dose: 40.0 mg/kg/injection, schedule: Q01DX010 (ip), vehicle: saline) of the same compound?
**A.** 95 % of control

**Q.** How did the T/C [5] turn out when O=C1c2cc(Cl)ccc2-c2c(Cl)cc(Cl)cc21 was run?
**A.** 91 % of control

**Q.** What about the T/C [6] of the same compound?
**A.** 87 % of control

**Q.** What about the T/C [7] of the same compound?
**A.** 100 % of control

**Q.** And the T/C [8]?
**A.** 91 % of control

**Q.** What does the source list for CN(C)CCC(=O)c1ccc(Cl)cc1?
**A.** T/C (dose: 18.8 mg/kg/injection, schedule: Q01DX009 (ip), vehicle: saline with Tween-80): 96 % of control; T/C [4]: 93 % of control; T/C (dose: 75.0 mg/kg/injection, schedule: Q01DX009 (ip), vehicle: saline with Tween-80): 113 % of control

**Q.** With CCCCCC(CN(C)C)C(=O)/C=C/c1cccc(O)c1 (centres undefined) as the compound, how does the T/C (dose: 50.0 mg/kg/injection, schedule: Q01DX009 (ip), vehicle: saline with Tween-80) read?
**A.** 106 % of control

**Q.** What about the T/C [9] of the same compound?
**A.** 98 % of control

**Q.** What does the source list for CCCCCCC(CCCCCC)(CCCCCC)B1OCCO1?
**A.** T/C [9]: 100 % of control; T/C [5]: 100 % of control; T/C [6]: 104 % of control; T/C [7]: 109 % of control; T/C (dose: 400.0 mg/kg/injection, schedule: Q01DX009 (ip), vehicle: saline with Tween-80): 123 % of control; T/C [8]: 104 % of control
